This is an account of results in patent publication US20080287445A1, “Prokineticin 2 receptor antagonists” (priority 2005, published 2008).

Each structure is given as a SMILES string. Several values for one entry are separate records, joined by “and”; a condition that tells them apart may be missing. Identical values can stand only once.

The assay deals with T1, GPR73 (prokineticin 1 receptor) (Homo sapiens, UniProt Q8TCW9).
T1 construct: expressed in transfected cells; host or cells: HEK 293
Kind of assay: PK1 functional assay: Ca2+ mobilization screening for PK1 antagonists on the FLIPR. The assay is classed as cell-based. The conditions noted are these: HEK 293 GPR73 cells, multiple values = multiple testing; for inhibition at 10 µM: HEK293, 10 μM compound, read-out: Ca^2+ Mobilization % Inh @ 10 μM; for IC50: PK1 ligand preparation at its EC50, read-out: Ca^2+ Mobilization IC50. How it is done:
At a time of 24 h prior to running the assay, in cell culture media (DMEM containing high Glucose and L-glutamine, 10% FBS, 1% Pen/Streptomycin, 1% Sodium Pyruvate, 20 mM HEPES, Zeocin 200 mg/L), 100 μL of 1.3*10^6/ml HEK 293 GPR73 (prokineticin 1 receptor) expressing cells were plated in a 96 well poly-d-lysine coated plate (Costar), and incubated at 37 C and 5% CO2. On the day in which the assay was run, the media was removed and 200 μL of 5× Calcium Plus Dye (Molecular Devices) which was previously resuspended with 200 mL of assay buffer [HBSS w/Ca^2+ and Mg^2+ w/o phenol red, 20 mM HEPES, 0.1% BSA, 10 mL probenecid (710 mg probenecid in 5 mL of 1N NaOH, to which was then added 5 mL HBSS containing 20 mM HEPES)] was added to each well of the 96-well plate. The plate was incubated at 37 C and 5% CO2 for 30 min in dark. The plate was removed and allowed to reach RT for 15 min in the dark. The assay was then run on the FLIPR. In Brief: base line read for 1 min, compound added (25 μL) and incubated for 4 min, 15 seconds, PK1 ligand preparation added (25 μL) for a final concentration of a previously determined EC50 and fluorescence was counted for 1 min, 45 seconds. Baseline is described as the amount of relative fluorescence read when buffer alone is added to cells. Baseline was subtracted from all wells. Percent of control was calculated as follows:
(Baseline subtracted well value is divided by baseline subtracted max value)*100. Percent inhibition is 100 minus the percent of control value.
The IC50 is defined as the amount of a given compound required to inhibit 50% of the maximum signal that is generated by the concentration of PK1 preparation used in our assay. IC50 values were calculated using GraphPad Prism.
A general note: Calcium flux is commonly read through the fluorescence of an indicator in the cells.

In general, IC50 refers to the concentration at which inhibition is half-maximal.

T1 sequence (Q8TCW9 whole entry, species assumed): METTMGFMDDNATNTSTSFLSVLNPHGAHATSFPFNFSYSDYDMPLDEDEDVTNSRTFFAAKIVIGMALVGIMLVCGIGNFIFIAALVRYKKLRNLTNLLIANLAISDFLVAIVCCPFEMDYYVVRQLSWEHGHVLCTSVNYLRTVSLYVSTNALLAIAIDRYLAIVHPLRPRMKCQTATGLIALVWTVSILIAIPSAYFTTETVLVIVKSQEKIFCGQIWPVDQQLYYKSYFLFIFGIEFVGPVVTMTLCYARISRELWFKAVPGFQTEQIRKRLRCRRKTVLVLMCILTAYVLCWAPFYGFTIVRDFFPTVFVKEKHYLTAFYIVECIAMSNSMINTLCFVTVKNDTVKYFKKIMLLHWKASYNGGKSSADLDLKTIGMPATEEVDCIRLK

`COc1ccc(Cn2c(=O)nc(NCc3cccnc3N)n(Cc3ccccc3C#N)c2=O)cc1` [Cpd 88]: the inhibition at 10 µM amounted to 41% and the IC50 was more than 10 µM.

Regarding `COc1ccc(Cn2c(NCc3cccnc3N)nc(=O)n(Cc3ccc(I)cc3)c2=O)cc1` [Cpd 89], the inhibition at 10 µM stood at 82% and the IC50 worked out at 0.817 µM.

As to `COc1ccc(Cn2c(NCc3cccnc3N)nc(=O)n(Cc3ccc(-n4cccn4)cc3)c2=O)cc1` [Cpd 90], the inhibition at 10 µM was 71% and the IC50 was determined as 2.33 µM.

Regarding `Nc1ncccc1CNc1nc(=O)n(Cc2ccc(F)cc2)c(=O)n1Cc1ccc(OC(F)(F)F)cc1` [Cpd 91], the inhibition at 10 µM was determined as 59% and the IC50 came out at 3.98 µM.

For `COc1ccc(Cn2c(=O)nc(NCc3cccnc3N)n(Cc3ccccc3OC)c2=O)cc1` [Cpd 92], the inhibition at 10 µM came to 58% and the IC50 worked out at 5.16 µM.

`COC(=O)c1cccc(Cn2c(NCc3cccnc3N)nc(=O)n(Cc3ccc(OC)cc3)c2=O)c1` [Cpd 93]: the inhibition at 10 µM turned out to be 96% and the IC50 turned out to be 0.116 µM.

With `COc1ccc(CCn2c(NCc3cccnc3N)nc(=O)n(Cc3ccc(OC)cc3)c2=O)cc1` [Cpd 94], the inhibition at 10 µM came out at 91% and the IC50 was determined as 0.373 µM.

For the compound `COc1ccc(Cn2c(=O)nc(NCc3cccnc3N)n(Cc3ccc(OC)nc3)c2=O)cc1` [Cpd 95], the inhibition at 10 µM is 92% and the IC50 stood at 0.084 µM.

For `COc1ccc(Cn2c(=O)nc(NCc3cnc(C)cc3C)n(Cc3ccc(OC(F)F)cc3)c2=O)cc1` [Cpd 96], the IC50 was 0.273 µM.

Turning to `COc1ccc(Cn2c(NCc3c(C)cc(C)nc3N)nc(=O)n(Cc3ccc(OC)cc3)c2=O)cc1` [Cpd 97, 6-[(2-Amino-4,6-dimethyl-pyridin-3-ylmethyl)-amino]-1,3-bis-(4-methoxy-benzyl)-1H-[1,3,5]triazine-2,4-dione], the inhibition at 10 µM was found to be 90%; the IC50 is 0.006 µM and 0.007 µM and 0.019 µM. Where the note is “10 μM compound, 10 µM”, the “Ca^2+ Mobilization % Inh @ 10 μM” value is 96% and 98%.

On to `COc1ccc(Cn2c(=O)nc(NCc3cccnc3N)n(Cc3cccc(OC(F)(F)F)c3)c2=O)cc1` [Cpd 98], for which the inhibition at 10 µM was determined as 77% and the IC50 stood at 0.736 µM.

On to `COc1ccc(Cn2c(=O)nc(NCc3cnc(C)cc3C)n(Cc3cccc(OC(F)(F)F)c3)c2=O)cc1` [Cpd 99], for which the inhibition at 10 µM stood at 91% and the 50% inhibitory concentration (IC50) was determined as 0.1 µM.

As to `COc1ccc(Cn2c(=O)nc(NCc3cnc(C)cc3C)n(Cc3ccc(SC)cc3)c2=O)cc1` [Cpd 100], the inhibition at 10 µM was determined as 62% and the IC50 worked out at 0.533 µM.

For `COc1ccc(Cn2c(=O)nc(NCc3cnc(C)cc3C)n(Cc3ccncc3)c2=O)cc1` [Cpd 101], the inhibition at 10 µM was determined as 60% and the IC50 was found to be 3.3 µM.

For the compound `COc1ccc(Cn2c(=O)nc(NCc3cnc(C)cc3C)n(Cc3cc4ccccc4o3)c2=O)cc1` [Cpd 102], the inhibition at 10 µM is 99% and the IC50 came to 0.11 µM.

For the compound `CCCCCCn1c(NCc2cnc(C)cc2C)nc(=O)n(Cc2ccc(OC)cc2)c1=O` [Cpd 103], the inhibition at 10 µM came out at 41% and the IC50 is more than 10 µM.

Regarding `COc1ccc(Cn2c(=O)nc(NCc3cnc(C)cc3C)n(Cc3ccc(OC)nc3)c2=O)cc1` [Cpd 104], the inhibition at 10 µM was determined as 96% and the IC50 turned out to be 0.193 µM.

As for `COc1ccc(Cn2c(=O)nc(NCc3cnc(C)cc3C)n(Cc3ccccc3OC(F)(F)F)c2=O)cc1` [Cpd 105], the inhibition at 10 µM turned out to be 85% and the IC50 was found to be 0.437 µM.

As for `CCOc1ccc(Cn2c(=O)nc(NCc3cnc(C)cc3C)n(Cc3ccc(OC)cc3)c2=O)cc1` [Cpd 107], the inhibition at 10 µM was found to be 89% and the IC50 stood at 0.868 µM.

For the compound `COc1ccc(Cn2c(NCc3cnc(C)cc3C)nc(=O)n(Cc3ccc([N+](=O)[O-])cc3)c2=O)cc1` [Cpd 108], the inhibition at 10 µM came out at 42% and the IC50 was more than 10 µM.

Consider `C=CCC(c1ccc(OC)cc1)n1c(=O)nc(NCc2cnc(C)cc2C)n(Cc2ccc(OC)cc2)c1=O` (stereo not drawn) [Cpd 109], for which the inhibition at 10 µM is 89% and the IC50 was determined as 0.681 µM.
